Reference: patent US4923963A, “Bradykinin antagonist peptides” (Nova Technology Limited Partnership, priority 1987, dated 1990)
Where two headings read alike, the source gives them in different places. Square brackets hold non-standard residues; d marks the D form. Peptide text beside a SMILES is read from it. dPhe(4-Cl) = N[C@H](Cc1ccc(Cl)cc1)C(=O)O; dPhe(4-F) = N[C@H](Cc1ccc(F)cc1)C(=O)O; d2Nal = N[C@H](Cc1ccc2ccccc2c1)C(=O)O; Hyp = O=C(O)[C@@H]1C[C@@H](O)CN1; 2Thi = N[C@@H](Cc1cccs1)C(=O)O; d2Thi = N[C@H](Cc1cccs1)C(=O)O

Assays:
[1] = tested on: isolated guinea pig ileum; type: cell-based; set-up: pA2 /GPI: activity class: scale not given here; settings: isolated guinea pig ileum; for pA2 /GPI: activity class: not quantitated
Experimental: (§1) The bradykinin antagonists were assayed on isolated rat uterus in natural or induced estrus and on guinea pig ileum, according to the commonly accepted assay methods for bradykinin and related kinins as described by Trautschold (Handbook of Expt. Pharmacol. Vol 25, Springer Verlag, pp. 53-55, 1970) for inhibition of the myotropic activity of bradykinin. The inhibition potencies, as determined according to the commonly accepted manner described by Schild for antagonists of biologically active compounds (Br. J. Pharmacol. 2:189, 1947), and expressed as pA2 values are determined on isolated rat uterus (RUT) and isolated guinea pig ileum (GPI). In the assays, a dose-response curve is determined for the reference substance bradykinin. The dose of bradykinin which produced a half maximal contraction of tissue is the ED50 dose. An amount of bradykinin equivalent to twice the ED50 dose is administered to the tissue 30 seconds after the start of incubation of the tissue with a dose of antagonist. Doses of antagonist are increased in this protocol until pre-incubation with a dose of antagonist reduces the contraction in response to the double ED50 dose of bradykinin to response of a single ED50 dose of bradykinin. The pA2 value represents the negative logarithm of the molar concentration of antagonist necessary to reduce the response of a double ED50 dose of bradykinin to that of an ED50 dose. One unit of pA2 value represents an order of magnitude change in potency. For comparison, the negative log of the dose of BK, the dose which causes half maximal contraction of the tissues, is commonly known as the pD2 value. The pD2 value for bradykinin is 7.9 on the rat uterus and 7.4 on the guinea pig ileum.

[2] = tested on: isolated rat uterus; type: cell-based
Experimental: as §1

[3] = tested on: rat blood pressure; assay: effects on blood pressure in the anesthetized rat (RBP), intraaortic and intravenous bolus; type: in vivo; set-up: RBP-IA: activity class / RBP-IV: activity class: scale not given here
Experimental: The in vivo effects of bradykinin antagonists on blood pressure in the anesthetized rat are determined according to the assay described by Roblero, Ryan and Stewart (Res. Commun. Pathol. Pharmacol. 6:207, 1973). The antagonists also produce inhibition of the bradykinin response when injected as a bolus admixture of bradykinin plus antagonist by either the ia or iv route of administration.

[4] = isolated rat uterus, number of tissues in parentheses
[5] = rat blood pressure, intraaortic bolus
[6] = rat blood pressure, intravenous bolus

`N=C(N)NCCC[C@H](NC(=O)[C@H](Cc1ccccc1)NC(=O)[C@@H](Cc1ccccc1)NC(=O)[C@H](CO)NC(=O)[C@H](Cc1ccccc1)NC(=O)CNC(=O)[C@@H]1CCCN1C(=O)[C@@H]1CCCN1C(=O)[C@H](N)Cc1ccc(Cl)cc1)C(=O)O` [Example 2, CDF-Pro-Pro-Gly-Phe-Ser-DPhe-Phe-Arg] (H-[dPhe(4-Cl)]PPGFS[dF]FR-OH) was tested, and the “pA2 /GPI: activity class” value [1] was 0 and the “pA2 /RUT (antagonist potency)” value [2, 4] was 5.0.
In the case of `N=C(N)NCCC[C@H](NC(=O)[C@H](Cc1ccccc1)NC(=O)[C@@H](Cc1ccccc1)NC(=O)[C@H](CO)NC(=O)[C@H](Cc1ccccc1)NC(=O)CNC(=O)[C@@H]1C[C@@H](O)CN1C(=O)[C@@H]1CCCN1C(=O)[C@H](N)Cc1ccc(Cl)cc1)C(=O)O` [Example 3, CDF-Pro-Hyp-Gly-Phe-Ser-DPhe-Phe-Arg] (H-[dPhe(4-Cl)]P[Hyp]GFS[dF]FR-OH), the “pA2 /GPI: activity class” value [1] is reported as 0.
With `N=C(N)NCCC[C@@H](N)C(=O)N[C@H](Cc1ccc(Cl)cc1)C(=O)N1CCC[C@H]1C(=O)N1CCC[C@H]1C(=O)NCC(=O)N[C@@H](Cc1ccccc1)C(=O)N[C@@H](CO)C(=O)N[C@H](Cc1ccccc1)C(=O)N[C@@H](Cc1ccccc1)C(=O)N[C@@H](CCCNC(=N)N)C(=O)O` [Example 4, DArg-CDF-Pro-Pro-Gly-Phe-Ser-DPhe-Phe-Arg] (H-[dR][dPhe(4-Cl)]PPGFS[dF]FR-OH) the “pA2 /GPI: activity class” value [1] was 0 and the “pA2 /RUT (antagonist potency)” value [2, 4] was 5.4.
With `N=C(N)NCCC[C@@H](N)C(=O)N[C@H](Cc1ccc(Cl)cc1)C(=O)N1CCC[C@H]1C(=O)N1C[C@H](O)C[C@H]1C(=O)NCC(=O)N[C@@H](Cc1ccccc1)C(=O)N[C@@H](CO)C(=O)N[C@H](Cc1ccccc1)C(=O)N[C@@H](Cc1ccccc1)C(=O)N[C@@H](CCCNC(=N)N)C(=O)O` [Example 5, DArg-CDF-Pro-Hyp-Gly-Phe-Ser-DPhe-Phe-Arg] (H-[dR][dPhe(4-Cl)]P[Hyp]GFS[dF]FR-OH) the “pA2 /GPI: activity class” value [1] was 0 and the “pA2 /RUT (antagonist potency)” value [2, 4] was 5.8.
In the case of `N=C(N)NCCC[C@H](NC(=O)[C@H](Cc1ccccc1)NC(=O)[C@@H](Cc1cccs1)NC(=O)[C@H](CO)NC(=O)[C@H](Cc1ccccc1)NC(=O)CNC(=O)[C@@H]1CCCN1C(=O)[C@@H]1CCCN1C(=O)[C@H](N)Cc1ccc(Cl)cc1)C(=O)O` [Example 6, CDF-Pro-Pro-Gly-Phe-Ser-DThi-Phe-Arg] (H-[dPhe(4-Cl)]PPGFS[d2Thi]FR-OH), the “RBP-IA: activity class” value [3, 5] is reported as 0, the “RBP-IV: activity class” value [3, 6] is reported as 0 and the “pA2 /GPI: activity class” value [1] is reported as 0.
`N=C(N)NCCC[C@@H](N)C(=O)N1CCC[C@H]1C(=O)N1C[C@H](O)C[C@H]1C(=O)NCC(=O)N[C@@H](Cc1cccs1)C(=O)N[C@@H](CO)C(=O)N[C@H](Cc1ccccc1)C(=O)N[C@@H](Cc1cccs1)C(=O)N[C@@H](CCCNC(=N)N)C(=O)O` [Example 8, DArg-Pro-Hyp-Gly-Thi-Ser-DPhe-Thi-Arg] (H-[dR]P[Hyp]G[2Thi]S[dF][2Thi]R-OH) was tested, and the “pA2 /GPI (antagonist potency)” value ([1]; number of tissues in parentheses) was 5.4 and the “pA2 /RUT (antagonist potency)” value [2] was 5.4.
For `N=C(N)NCCC[C@H](NC(=O)[C@H](Cc1ccccc1)NC(=O)[C@@H](Cc1ccccc1)NC(=O)[C@H](CO)NC(=O)[C@H](Cc1ccccc1)NC(=O)CNC(=O)[C@@H]1C[C@@H](O)CN1C(=O)[C@@H]1CCCN1C(=O)[C@H](N)Cc1ccc(O)cc1)C(=O)O` [Example 9, DTyr-Pro-Hyp-Gly-Phe-Ser-DPhe-Phe-Arg] (H-[dY]P[Hyp]GFS[dF]FR-OH), the “pA2 /GPI: activity class” value [1] was 0.
With `N=C(N)NCCC[C@H](NC(=O)[C@H](Cc1ccccc1)NC(=O)[C@@H](Cc1ccccc1)NC(=O)[C@H](CO)NC(=O)[C@H](Cc1ccccc1)NC(=O)CNC(=O)[C@@H]1C[C@@H](O)CN1C(=O)[C@@H]1CCCN1C(=O)[C@H](N)Cc1ccc(F)cc1)C(=O)O` [Example 11, FDF-Pro-Hyp-Gly-Phe-Ser-DPhe-Phe-Arg] (H-[dPhe(4-F)]P[Hyp]GFS[dF]FR-OH) the “pA2 /GPI: activity class” value [1] was 0.
In the case of `CC(C)[C@@H](NC(=O)[C@H](N)CCCNC(=N)N)C(=O)N1CCC[C@H]1C(=O)N1C[C@H](O)C[C@H]1C(=O)NCC(=O)N[C@@H](Cc1ccccc1)C(=O)N[C@@H](CO)C(=O)N[C@H](Cc1ccccc1)C(=O)N[C@@H](Cc1ccccc1)C(=O)N[C@@H](CCCNC(=N)N)C(=O)O` [Example 16, DArg-DVal-Pro-Hyp-Gly-Phe-Ser-DPhe-Phe-Arg] (H-[dR][dV]P[Hyp]GFS[dF]FR-OH), the “RBP-IA: activity class” value [3, 5] is reported as 0, the “RBP-IV: activity class” value [3, 6] is reported as 0 and the “pA2 /GPI: activity class” value [1] is reported as 0.
For `CC[C@@H](C)[C@@H](N)C(=O)N1CCC[C@H]1C(=O)N1C[C@H](O)C[C@H]1C(=O)NCC(=O)N[C@@H](Cc1ccccc1)C(=O)N[C@@H](CO)C(=O)N[C@H](Cc1ccccc1)C(=O)N[C@@H](Cc1ccccc1)C(=O)N[C@@H](CCCNC(=N)N)C(=O)O` [Example 17, DIle-Pro-Hyp-Gly-Phe-Ser-DPhe-Phe-Arg] (H-[dI]P[Hyp]GFS[dF]FR-OH), the “RBP-IA: activity class” value [3, 5] was 0, the “RBP-IV: activity class” value [3, 6] was 0 and the “pA2 /GPI: activity class” value [1] was 0.
With `CC[C@@H](C)[C@@H](NC(=O)[C@H](N)CCCNC(=N)N)C(=O)N1CCC[C@H]1C(=O)N1C[C@H](O)C[C@H]1C(=O)NCC(=O)N[C@@H](Cc1ccccc1)C(=O)N[C@@H](CO)C(=O)N[C@H](Cc1ccccc1)C(=O)N[C@@H](Cc1ccccc1)C(=O)N[C@@H](CCCNC(=N)N)C(=O)O` [Example 18, DArg-DIle-Pro-Hyp-Gly-Phe-Ser-DPhe-Phe-Arg] (H-[dR][dI]P[Hyp]GFS[dF]FR-OH) the “RBP-IA: activity class” value [3, 5] was 0, the “RBP-IV: activity class” value [3, 6] was 0 and the “pA2 /GPI: activity class” value [1] was 0.
`N=C(N)NCCC[C@H](NC(=O)[C@H](Cc1cccs1)NC(=O)[C@@H](Cc1ccccc1)NC(=O)[C@H](CO)NC(=O)[C@H](Cc1cccs1)NC(=O)CNC(=O)[C@@H]1CCCN1C(=O)[C@@H]1CCCN1C(=O)[C@@H](Cc1ccc2ccccc2c1)NC(=O)[C@H](CCCCN)NC(=O)[C@@H](N)CCCCN)C(=O)O` [Example 24, Lys-Lys-DNal-Pro-Pro-Gly-Thi-Ser-DPhe-Thi-Arg] (H-KK[d2Nal]PPG[2Thi]S[dF][2Thi]R-OH) was tested, and the “pA2 /GPI: activity class” value [1] was 0.
With `N=C(N)NCCC[C@@H](N)C(=O)N[C@H](Cc1cccs1)C(=O)N1CCC[C@H]1C(=O)N1C[C@H](O)C[C@H]1C(=O)NCC(=O)N[C@@H](Cc1ccccc1)C(=O)N[C@@H](CO)C(=O)N[C@H](Cc1cccs1)C(=O)N[C@@H](Cc1ccccc1)C(=O)N[C@@H](CCCNC(=N)N)C(=O)O` [Example 36, DArg-DThi-Pro-Hyp-Gly-Phe-Ser-DThi-Phe-Arg] (H-[dR][d2Thi]P[Hyp]GFS[d2Thi]FR-OH) the “pA2 /GPI: activity class” value [1] was 0.
In the case of `N=C(N)NCCC[C@H](NC(=O)[C@H](CCCCN)NC(=O)[C@@H](N)CCCCN)C(=O)N1CCC[C@H]1C(=O)N1CCC[C@H]1C(=O)NCC(=O)N[C@@H](Cc1cccs1)C(=O)N[C@@H](CO)C(=O)N[C@H](Cc1ccccc1)C(=O)N[C@@H](Cc1cccs1)C(=O)N[C@H](CCCNC(=N)N)C(N)=O` [Example 58, Lys-Lys-Arg-Pro-Pro-Gly-Thi-Ser-DPhe-Thi-DArg-NH2] (H-KKRPPG[2Thi]S[dF][2Thi][dR]-NH2), the “% DESTR (metabolic breakdown of BK-like agonists in RBP assay)” value (from here on “% DESTR”) ([3]; rat, in vivo) is reported as 60%, the “RBP-IA: agonist potency as percent of BK potency” value (from here on “RBP-IA … as percent of BK potency”) ([3]; rat, in vivo) is reported as 0.2% and the “RBP-IV: agonist potency as percent of BK potency” value (“RBP-IV … as percent of BK potency” below) ([3]; rat, in vivo, iv) is reported as 3%. For the same molecule, the “pA2 /RUT: agonist potency as percent of BK potency” value (shortened to “pA2 /RUT … as percent of BK potency”) [2] was 0.02%.
In the case of `CC[C@H](C)[C@H](NC(=O)[C@H](CCCNC(=N)N)NC(=O)[C@H](Cc1ccccc1)NC(=O)[C@@H](Cc1ccccc1)NC(=O)[C@H](CO)NC(=O)[C@H](Cc1ccccc1)NC(=O)CNC(=O)[C@@H]1CCCN1C(=O)[C@@H]1CCCN1C(=O)[C@@H](N)CCCNC(=N)N)C(=O)N[C@@H](Cc1ccc(O)cc1)C(=O)O` [Example 63, Arg-Pro-Pro-Gly-Phe-Ser-DPhe-Phe-Arg-Ile-Tyr] (H-RPPGFS[dF]FRIY-OH), the “RBP-IA … as percent of BK potency” value [3, 5] is reported as 0.2%, the “RBP-IV … as percent of BK potency” value [3, 6] is reported as 2% and the “% DESTR” value ([3]; relative to BK = 100%) is reported as 70%. The “pA2 /RUT … as percent of BK potency” value ([2]; isolated rat uterus) was 0.6%.
With `CC[C@H](C)[C@H](NC(=O)[C@H](CCCNC(=N)N)NC(=O)[C@H](Cc1cccs1)NC(=O)[C@@H](Cc1ccccc1)NC(=O)[C@H](CO)NC(=O)[C@H](Cc1cccs1)NC(=O)CNC(=O)[C@@H]1CCCN1C(=O)[C@@H]1CCCN1C(=O)[C@@H](N)CCCNC(=N)N)C(=O)N[C@@H](Cc1ccc(O)cc1)C(=O)O` [Example 65, Arg-Pro-Pro-Gly-Thi-Ser-DPhe-Thi-Arg-Ile-Tyr] (H-RPPG[2Thi]S[dF][2Thi]RIY-OH) the “RBP-IA … as percent of BK potency” value [3, 5] was 0.06%, the “RBP-IV … as percent of BK potency” value [3, 6] was 6% and the “% DESTR” value ([3]; relative to BK = 100%) was 0%. The “pA2 /RUT … as percent of BK potency” value ([2]; isolated rat uterus) was 0.5%.
